Results from article PMC8000724, “Trans-Epithelial Transport, Metabolism, and Biological Activity Assessment of the Multi-Target Lupin Peptide [sequence] (P5) and Its Metabolite [sequence] (P5-Met)” (Nutrients, 2021).
No end group written: not given here.

Experiments:
[1] = biological target: T1, HMGCoAR (catalytic domain) (Homo sapiens, UniProt P04035); test: HMGCoAR activity assay; format: biochemical
T1 construct: finally the HMGCoAR (catalytic domain) (2 µL); purchased Sigma-Aldrich
T1 sequence (P04035 340-888 limits assumed): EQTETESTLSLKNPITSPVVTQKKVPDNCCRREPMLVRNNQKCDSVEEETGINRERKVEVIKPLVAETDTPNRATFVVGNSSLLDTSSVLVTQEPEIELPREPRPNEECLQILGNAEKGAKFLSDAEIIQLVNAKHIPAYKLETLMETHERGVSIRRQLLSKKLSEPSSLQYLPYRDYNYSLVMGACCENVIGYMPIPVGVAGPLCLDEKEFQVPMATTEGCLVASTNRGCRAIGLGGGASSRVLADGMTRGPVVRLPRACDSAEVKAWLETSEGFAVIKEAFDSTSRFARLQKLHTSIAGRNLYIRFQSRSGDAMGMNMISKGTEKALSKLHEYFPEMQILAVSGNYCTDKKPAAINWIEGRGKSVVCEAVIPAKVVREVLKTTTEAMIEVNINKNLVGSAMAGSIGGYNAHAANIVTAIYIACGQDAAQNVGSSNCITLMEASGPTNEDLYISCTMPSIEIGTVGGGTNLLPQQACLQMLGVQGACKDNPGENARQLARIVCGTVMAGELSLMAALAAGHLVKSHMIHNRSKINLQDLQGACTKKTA
Procedure: The experiments were carried out following the manufacturer instructions and optimized protocol. The assay buffer, NADPH, substrate solution, and HMGCoAR were provided in the HMGCoAR Assay Kit (Sigma Aldrich SRL, Milan, Italy). The experiments were carried out following the manufacturer instructions at 37 °C. In particular, each reaction (200 µL) was prepared adding the reagents in the following order: 1× assay buffer, a 10–500 µM doses of P5 and P5-met or vehicle (C), the NADPH (4 µL), the substrate solution (12 µL), and finally the HMGCoAR (catalytic domain) (2 µL). Subsequently, the samples were mixed and the absorbance at 340 nm read by the microplate reader Synergy H1 (Winooski, VT, USA) at time 0 and 10 min. The HMGCoAR-dependent oxidation of NADPH and the inhibition properties of peptides were measured by absorbance reduction, which is directly proportional to enzyme activity.

[2] = tested on: differentiated Caco-2 cells (AP membrane peptidases); test: Metabolites of P5 produced by Caco-2 cell peptidases, MS analysis of AP solutions; format: in vitro ADME, human; design: key to Metabolite of P5 identified in the AP compartment: Mixture / Metabolite of P5 identified in the AP compartment: Alone: x, detected; n.d., not detected; settings: P5 incubated in mixture with P3 and P7 (500 μM each), Caco-2, end of incubation 120 min
Procedure: (§1) Prior to experiments, the cell monolayer integrity and differentiation were checked by TEER measurement as described in detail above. Peptide trans-epithelial passage was assayed in differentiated Caco-2 cells in transport buffer solution (137 mM NaCl, 5.36 mM KCl, 1.26 mM CaCl2, and 1.1 mM MgCl2, 5.5 mM glucose) according to previously described conditions. In order to reproduce the pH conditions existing in vivo in the small intestinal mucosa, the apical (AP) solutions were maintained at pH 6.0 (buffered with 10 mM morpholinoethane sulfonic acid), and the basolateral (BL)solutions were maintained at pH 7.4 (buffered with 10 mM […]). Prior to transport experiments, cells were washed twice with 500 µL PBS containing Ca^++ and Mg^++. Peptide transportation by mature Caco-2 cells was assayed by loading the AP compartment with P5 alone, in mixture with […] (P3) and […] (P7), and/or P5-met (500 μM) in the AP transport solution (500 µL) and the BL compartment with the BL transport solution (700 µL). The plates were incubated at 37 °C and the BL solutions were collected at different time points (i.e., 15, 30, 60, 90, and 120 min) and replaced with fresh solutions pre-warmed at 37 °C. All BL and AP solutions collected at the end of the transport experiment were stored at −80 °C prior to analysis. Three independent transport experiments were performed, each in duplicate. In order to assess the involvement of transcytotic process in peptides passage, parallel transport experiments were performed in the presence of 500 nM wortmannin in both the AP and BL compartment, over 60 min incubation time.
The medium collected at the end of transport experiments from AP and BL chambers (500 µL and 700 µL, respectively) were freeze-dried and residues were solubilized in HPLC water (100 µL). Samples were desalted with C18 resin ZipTip by using 80% ACN, 0.1% FA as eluent (Millipore Corporation, Bedford, MA, USA). Each sample was lyophilized under speed-vacuum for 5 h at 30°C and re-dissolved in 50 μL (0.1% formic acid), before MS analysis. Purified BL samples were analyzed on a SL IT mass spectrometer interfaced with a HPLC- Chip Cube source (Agilent Technologies, Palo Alto, CA, USA). Data were processed with MSD Trap control 4.2, and Data analysis 4.2 version (Agilent Technologies, Palo Alto, CA, USA). The chromatographic separation was performed using a 1200 HPLC system equipped with a binary pump. […] Specifically, The monitored MRM transitions of P5-met were from the mono-charged precursor ion [M^+H]^+ (m/z 882.43) to product-ions m/z 678.3 and 407.1, respectively. […]

[3] = tested on: differentiated Caco-2 cells; test: Trans-epithelial transport across differentiated Caco-2 cell monolayer; format: in vitro ADME, human
Procedure: Human intestinal Caco-2 cells, obtained from INSERM (Paris, France), where cultured according to a published protocol. For differentiation, they were seeded on polycarbonate filters, 12 mm diameter, 0.4 µm pore diameter (Transwell, Corning Inc., Lowell, MA, US) at a 3.5 × 10^5 cells/cm^2 density in complete medium supplemented with 10% FBS in both AP and BL compartments for 2 d to allow the formation of a confluent cell monolayer. Starting from day three after seeding, cells were transferred to FBS-free medium in both compartments, supplemented with ITS (final concentration 10 mg/L insulin (I), 5.5 mg/L transferrin (T), 6.7 μg/L sodium selenite (S); GIBCO-Invitrogen, San Giuliano Milanese, Italy) only in the basolateral (BL) compartment, and allowed to differentiate for 18–21 days with regular medium changes three times weekly.
The transepithelial electrical resistance (TEER) of differentiated Caco-2 cells was measured at 37 °C using the voltmeter apparatus Millicell (Millipore Co., Billerica, MA, USA), immediately before and at the end of the transport experiments. In addition, at the end of transport experiments, cells were incubated from the AP side with 1 mM phenol-red in PBS containing Ca^++ (0.9 mM) and Mg^++ (0.5 mM) for 1 h at 37 °C, to monitor the paracellular permeability of the cell monolayer. The BL solutions were then collected and NaOH (70 µL, 0.1 N) was added before reading the absorbance at 560 nm by a microplate reader Synergy H1 from Biotek (Winooski, VT, USA). Phenol-red passage was quantified using a standard phenol-red curve. Only filters showing TEER values and phenol red passages similar to untreated control cells were considered for peptide transport analysis.
as §1
The medium collected at the end of transport experiments from AP and BL chambers (500 µL and 700 µL, respectively) were freeze-dried and residues were solubilized in HPLC water (100 µL). Samples were desalted with C18 resin ZipTip by using 80% ACN, 0.1% FA as eluent (Millipore Corporation, Bedford, MA, USA). Each sample was lyophilized under speed-vacuum for 5 h at 30°C and re-dissolved in 50 μL (0.1% formic acid), before MS analysis. Purified BL samples were analyzed on a SL IT mass spectrometer interfaced with a HPLC- Chip Cube source (Agilent Technologies, Palo Alto, CA, USA). […]

## CC[C@H](C)C(=O)O[C@H]1C[C@H](O)C=C2C=C[C@H](C)[C@H](CC[C@@H](O)C[C@@H](O)CC(=O)O)[C@H]21 [pravastatin, reference compound]
[1]; 1.0 µM, positive control
  Reduction of HMGCoAR enzyme activity: 82.0%

## ILPKHSDAD [Peptide P5-frag, minor metabolite of P5, loss of the N-terminal leucine]
[2]
  Metabolite of P5 identified in the AP compartment: Mixture: x

## LILPKHSDAD [Peptide P5]
[3]; 500 nM wortmannin in AP and BL compartments, 60 min, HPLC-Chip MS of BL compartment
  Effect of the transcytosis inhibitor wortmannin on transport across Caco-2 cells: significantly impairs the transport
[3]; Caco-2 AP to BL, 2 h, 500 μM
  Amount in BL compartment, mixture versus alone: about 3.5 fold
[3]; in mixture with other lupin peptides (P3, P7), Caco-2 AP to BL, 500 μM
  Transport rate across Caco-2 monolayer: 8.9 ± 0.4 ng/(mL × min)
[3]; tested alone, 500 μM in AP, Caco-2 AP to BL, 2 h, conversion of the μg value
  Amount in the BL compartment at the end of incubation (2 h): 0.271 nmol
[3]; tested alone, 500 μM in AP, Caco-2 AP to BL, AP pH 6.0 / BL pH 7.4, 37 °C, 2 h, HPLC-Chip MS, mean ± SD
  Amount in the BL compartment at the end of incubation (2 h): 0.3 ± 0.02 µg
[3]; tested alone, 500 μM in AP, Caco-2 AP to BL, AP pH 6.0 / BL pH 7.4, 37 °C, HPLC-Chip MS, mean ± SD
  Amount in the BL compartment after 60 min: 0.20 ± 0.02 µg
[3]; tested alone, Caco-2 AP to BL, 500 μM
  Transport rate across Caco-2 monolayer: 1.8 ± 0.3 ng/(mL × min)
[3]; tested in mixture with P3 and P7, each 500 μM in AP, Caco-2 AP to BL, 2 h, conversion of the μg value
  Amount in the BL compartment at the end of incubation (2 h): 0.99 nmol
[3]; tested in mixture with P3 and P7, each 500 μM in AP, Caco-2 AP to BL, AP pH 6.0 / BL pH 7.4, 37 °C, 2 h, HPLC-Chip MS, mean ± SD
  Amount in the BL compartment at the end of incubation (2 h): 1.1 ± 0.2 µg
[1]; 10-500 µM peptide, 37 °C, NADPH absorbance 340 nm at 0 and 10 min
  IC50: 147 µM
